Patent publication US20100093760A1, “METHODS FOR IDENTIFYING COMPOUNDS THAT MODULATE CELL SIGNALING AND METHODS EMPLOYING SUCH COMPOUNDS” (The General Hospital Corporation, priority 2006, published 2010)
“Also recorded” adds a separate entry of the source.

Key:
caALK5 = molecular target: T1, caALK5 (Homo sapiens, UniProt P36897, T204D); experiment: Constitutively-active ALK5 PAI-1 promoter reporter (CAGA-Luc); assay type: cell-based; conditions: PASMCs, up to 20 μM
T1 construct: expressed in transfected cells; host or cells: murine PASMCs, transient transfection
Protocol: (§1) Murine PASMCs grown to 50% confluence in 6-well plates were transiently transfected with 0.3 μg Id1 promoter luciferase reporter construct (BRE-Luc, Dr. Peter ten Dijke, Leiden University Medical Center, Netherlands (Korchynskyi et al., J. Biol. Chem. 277:4883-4891, 2002)) in combination with 0.6 μg plasmids expressing constitutively-active forms of BMP type I receptors (caALK2, caALK3, or caALK6, kindly provided by Dr. Kohei Miyazono, University of Tokyo, Japan (Fujii et al., Mol. Biol. Cell 10:3801-3813, 1999)), using Fugene6 (Roche). To assess Activin and […] type I receptor function, PASMCs were transiently transfected with 0.3 μg PAI-1 promoter luciferase reporter construct (CAGA-Luc, Dr. Peter ten Dijke (Dennler et al., Embo J. 17:3091-3100, 1998)) in combination with 0.6 μg plasmids expressing constitutively active forms of type I receptors (caALK4, caALK5, and caALK7, also provided by Dr. Kohei Miyazono (Okadome et al., J. Biol. Chem. 271:21687-21690, 1996; Shimizu et al., Genes Cells 3:125-134, 1998)). For both reporters, 0.2 μg pRL-TK Renilla luciferase (Promega) was used to control for transfection efficiency. […] Cell extracts were harvested, and relative promoter activity quantitated by the ratio of firefly to Renilla luciferase activity using the dual luciferase assay kit (Promega). […] Hepcidin promoter activity was measured by luciferase assay as above.

caALK6 = experiment: Constitutively-active ALK6 transfection: phospho-SMAD1/5/8 immunoblot and Id1 promoter (BRE-Luc); assay type: cell-based
Protocol: Cell extracts or tissues were mechanically homogenized in SDS-lysis buffer (62.5 mM Tris-HCl (pH 6.8), 2% SDS, 10% glycerol, 50 mM DTT, 0.01% bromophenol blue); separated by SDS-PAGE; immunoblotted with anti-phospho-SMAD1/5/8, anti-phospho-SMAD2 (Cell Signaling, Beverly, Mass.), or anti-α-tubulin (Upstate/Millipore, Billerica, Mass.) Abs; and visualized using ECL Plus (GE Healthcare, Piscataway, N.J.). Levels of immunoreactive proteins were quantitated by ImageQuant software on a Storm phosphorimager (GE Healthcare).
Murine PASMCs grown to 50% confluence in 6-well plates were transiently transfected with 0.3 μg Id1 promoter luciferase reporter construct (BRE-Luc, Dr. Peter ten Dijke, Leiden University Medical Center, Netherlands (Korchynskyi et al., J. Biol. Chem. 277:4883-4891, 2002)) in combination with 0.6 μg plasmids expressing constitutively-active forms of BMP type I receptors (caALK2, caALK3, or caALK6, kindly provided by Dr. Kohei Miyazono, University of Tokyo, Japan (Fujii et al., Mol. Biol. Cell 10:3801-3813, 1999)), using Fugene6 (Roche). To assess Activin and […] type I receptor function, PASMCs were transiently transfected with 0.3 μg PAI-1 promoter luciferase reporter construct (CAGA-Luc, Dr. Peter ten Dijke (Dennler et al., Embo J. 17:3091-3100, 1998)) in combination with 0.6 μg plasmids expressing constitutively active forms of type I receptors (caALK4, caALK5, and caALK7, also provided by Dr. Kohei Miyazono (Okadome et al., J. Biol. Chem. 271:21687-21690, 1996; Shimizu et al., Genes Cells 3:125-134, 1998)). For both reporters, 0.2 μg pRL-TK Renilla luciferase (Promega) was used to control for transfection efficiency. PASMCs were incubated with Compound C/Dorsomorphin (4-10 μM) or vehicle starting one hour after transfection, for 24 hours or completion of the experiment. Cell extracts were harvested, and relative promoter activity quantitated by the ratio of firefly to Renilla luciferase activity using the dual luciferase assay kit (Promega). […] Hepcidin promoter activity was measured by luciferase assay as above.

[1] = test system: zebrafish embryos (eve1, pax2.1, krox20, MyoD); experiment: Wholemount zebrafish in situ hybridization of dorsal and ventral markers; assay type: in vivo
Protocol: In situ hybridization was performed as previously described (Westerfield, The Zebrafish Book, (University of Oregon Press, Eugene, Oreg., 1993)). Zebrafish krox20, pax2.1, and MyoD probes were produced as previously described (Weinberg et al., Development 122:271-280, 1996).

zebrafish embryos = assay type: in vivo
Protocol: According to one example of the whole animal-based screening methods of the invention, 1-2 hour old zebrafish embryos are arrayed in the wells of 96-well plates, three embryos per well. A chemical library, which is comprised of tens of thousands of diverse small molecules, is then pin-transferred into the wells at a final concentration of ˜2 to 10 uM. Embryos are observed over the course of next 24-48 hours and scored under a dissecting microscope for phenotype consistent with loss of BMP signaling (dorsalized embryos, FIG. 1) or with the loss of nodal signaling (cyclopia, FIG. 2).
Small molecule screening in zebrafish was performed as previously described (Peterson et al., Nat. Biotechnol. 22:595-599, 2004) with several modifications. Pairs of wild-type zebrafish were mated, and newly-fertilized eggs were arrayed in triplicate in 96-well plates containing E3 buffer. At 4 hours post fertilization (hpf), compounds were added to wells at 5-10 μM. Embryos were incubated at 28.5° C., and gross morphology of embryos was examined at 12, 24, and 48 hpf for dorsalization or ventralization of embryonic axis, as previously described (Mullins et al., Development 123:81-93, 1996). In total, 7,570 compounds were screened, including synthetic screening compounds (Chembridge Corporation, 5,580 small molecules) and known bioactive compounds (Microsource Discovery Systems, 1,840 small molecules and Sigma-Aldrich, 150 small molecules). For follow up studies, Compound C/Dorsomorphin and Ara-A (adenine 9-β-D-arabinofurano-side) were purchased from Sigma (St. Louis, Mo.), and C75 was purchased from EMD Biosciences (San Diego, Calif.).

zebrafish = experiment: Zebrafish bone mineralization (calcein staining); assay type: in vivo; conditions: at 10 dpf
Protocol: At 5 dpf and onward, larvae were fed for 1 hour every other day. […] At 10 dpf, larvae were immersed in calcein (0.2%) for 30 minutes, as previously described (Du et al., Dev. Biol. 238:239-246, 2001). […] Calcified skeletal structures were visualized by green fluorescence and the number of vertebral bodies counted.

hepcidin promoter = experiment: Hepcidin promoter luciferase reporter assay (Hep-Luc) in Hep3B cells; assay type: cell-based
Protocol: as §1

[2] = test system: hepatic SMAD1/5/8 phosphorylation; experiment: Iron-dextran challenge: hepatic SMAD1/5/8 phosphorylation in adult zebrafish; assay type: in vivo; design: dose or concentration left out as unconfirmed; conditions: co-injection with iron-dextran, intraperitoneal, 1 hour
[3] = 6-somite stage, treatment at 1 hpf
[4] = 10 μM, continuous exposure from 8 hpf, scored at 48 hpf

T1 sequence (P36897 34-503 T204D): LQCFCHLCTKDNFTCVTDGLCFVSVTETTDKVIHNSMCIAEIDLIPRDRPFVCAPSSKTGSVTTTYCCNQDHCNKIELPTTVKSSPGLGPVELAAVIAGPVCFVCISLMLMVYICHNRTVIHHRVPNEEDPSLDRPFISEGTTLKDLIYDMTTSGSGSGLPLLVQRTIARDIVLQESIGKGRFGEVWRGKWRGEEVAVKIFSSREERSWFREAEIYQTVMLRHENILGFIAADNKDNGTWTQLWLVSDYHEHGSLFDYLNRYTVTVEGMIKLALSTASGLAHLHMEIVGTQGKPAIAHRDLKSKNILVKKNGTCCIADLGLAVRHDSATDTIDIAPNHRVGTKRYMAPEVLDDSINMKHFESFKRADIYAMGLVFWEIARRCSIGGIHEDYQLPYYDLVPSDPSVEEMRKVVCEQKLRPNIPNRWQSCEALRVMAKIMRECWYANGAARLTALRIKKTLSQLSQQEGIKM

SMILES: c1cc(-c2cnn3cc(-c4ccc(OCCN5CCCCC5)cc4)cnc23)ccn1 [Compound C/Dorsomorphin]
- effect on caALK5-mediated PAI-1 promoter activity (CAGA-Luc) (caALK5): did not inhibit; also recorded: not decreased
- effect on caALK6-induced increase in phospho-SMAD1/5/8 (caALK6; BMPR-II-deficient PASMCs, 10 μM, immunoblot): inhibited
- effect on caALK6-mediated Id1 promoter activity (BRE-Luc) (caALK6; BMPR-II-deficient PASMCs, 0.5-20 μM): inhibited; also recorded: decreased
- selectivity among constitutively-active BMP type I receptors (caALK6; BRE-Luc, FIG. 21h): apparent selectivity for caALK2 and caALK3 over caALK6
- expression of Krox20 (rhombomeres 3 and 5) and MyoD [1, 3]: induced lateral expansion; also recorded: expand laterally
- expression of dorsal marker pax2.1 [1, 3]: induced expansion; also recorded: expands laterally
- expression of ventral marker eve1 ([1]; 18-somite stage, 10 μM at 1 hpf): reduced; also recorded: do not exhibit eve1 expression in the distal tail
- Moderate % (zebrafish embryos; [4]): 0%
- Normal % (zebrafish embryos; [4]): 15%
- Severe % (zebrafish embryos; 10 μM, interval exposure 2-4 hpf, scored at 48 hpf): 0%
- Moderate dorsalization, number of embryos (zebrafish embryos; 10 μM, interval exposure 4-8 hpf, scored at 48 hpf): 8
- Moderate-Severe, number of embryos (zebrafish embryos; DM 2 μM from 3 hpf, scored at 48 hpf): 0
- dorsalization phenotype (zebrafish embryos; ≧5 μM at ≦8 hpf): phenocopied with high penetrance the spectrum of dorsalization defects
- number of mineralized vertebrae (zebrafish; 4 μM from 24 hpf, P<0.001 vs DMSO): significant decrease
- effect on vertebral and craniofacial bone calcification (calcein staining) (zebrafish; 1-4 μM from 24 hpf): inhibition of bone mineralization; also recorded: disrupts vertebral bone mineralization; also recorded: disrupts craniofacial bone mineralization; also recorded: inhibits bone mineralization; also recorded: decrease in vertebral segment and craniofacial bone calcification; also recorded: reduced vertebral segment and craniofacial bone calcification
- viability and gross morphology (zebrafish; 1-4 μM from 24 hpf): morphologically and functionally normal; also recorded: without disrupting overall morphology; also recorded: viable fish at 10 dpf without evidence of dorsalization; also recorded: morphologically grossly normal and viable
- effect on HJV-induced hepcidin promoter activity (Hep-Luc) (hepcidin promoter; Hep3B cells transfected with HJV): effectively abrogated; also recorded: blocked
- effect on BMP2-induced hepcidin promoter activity (Hep-Luc) (hepcidin promoter; Hep3B cells, 10 μM, BMP2 25 ng/ml): effectively abrogated
- reduction of hepatic SMAD1/5/8 phosphorylation vs iron-dextran and vehicle [2]: ~3 fold
